# Source: PMC9358669, “Native metabolomics identifies the rivulariapeptolide family of protease inhibitors” (Nature Communications, 2022)
# Where two headings read alike, the source gives them in different places.
# How the values were obtained:
# Elastase = biological target: T1, Elastase (Sus scrofa, UniProt P00772); test: Elastase inhibition, fluorogenic substrate assay (MeOSuc-Ala-Ala-Pro-Val-AMC); assay type: biochemical, Sus domesticus; conditions: for IC50 / Mean (RFU/s): 40 min pre-incubation; for IC50: mean, n = 3; for Mean (RFU/s): Elastase
# T1 construct: purchased Sigma-Aldrich
# T1 sequence (P00772 27-266): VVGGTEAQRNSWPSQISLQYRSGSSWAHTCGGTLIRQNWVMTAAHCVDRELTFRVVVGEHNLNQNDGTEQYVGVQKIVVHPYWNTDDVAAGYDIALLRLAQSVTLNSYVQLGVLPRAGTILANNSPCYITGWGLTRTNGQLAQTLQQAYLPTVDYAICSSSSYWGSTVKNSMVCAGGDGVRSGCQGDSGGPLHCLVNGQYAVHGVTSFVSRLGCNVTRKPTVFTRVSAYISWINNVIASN
# Chymotrypsin = biological target: T2, Chymotrypsin (Bos taurus, UniProt P00766); test: Chymotrypsin inhibition, fluorogenic substrate assay (Suc-Ala-Ala-Pro-Phe-AMC); assay type: biochemical; conditions: for Mean (RFU/s): Chymotrypsin; for fold increase in potency towards chymotrypsin: molassamide B (6) compared to molassamide (5)
# T2 construct: purchased Sigma-Aldrich
# Proteinase K = biological target: T3, Proteinase K (Parengyodontium album, UniProt P06873); test: Proteinase K inhibition, fluorogenic substrate assay (Suc-Ala-Ala-Pro-Phe-AMC); assay type: biochemical, Tritirachium album; conditions: for IC50 / Mean (RFU/s): 40 min pre-incubation; for IC50: mean, n = 3; for Mean (RFU/s): Proteinase K
# T3 construct: purchased Roche
# T3 sequence (P06873 106-384): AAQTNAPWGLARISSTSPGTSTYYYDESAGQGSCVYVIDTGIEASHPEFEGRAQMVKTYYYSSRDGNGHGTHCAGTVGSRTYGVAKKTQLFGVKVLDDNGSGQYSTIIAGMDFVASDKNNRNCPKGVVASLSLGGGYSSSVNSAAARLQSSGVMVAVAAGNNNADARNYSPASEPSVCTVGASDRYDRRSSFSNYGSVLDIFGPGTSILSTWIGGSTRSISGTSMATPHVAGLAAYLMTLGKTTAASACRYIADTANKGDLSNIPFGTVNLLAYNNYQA
# [1] = inhibitor concentration 0.0508053 nM
# [2] = inhibitor concentration 0.152416 nM
# [3] = inhibitor concentration 0.457247 nM
# [4] = inhibitor concentration 1.37174 nM
# [5] = inhibitor concentration 4.11523 nM
# [6] = inhibitor concentration 12.3457 nM
# [7] = inhibitor concentration 37.037 nM
# [8] = inhibitor concentration 111.111 nM
# [9] = inhibitor concentration 333.333 nM
# [10] = inhibitor concentration 1000 nM
# [11] = inhibitor concentration 3000 nM
# [12] = molassamide B (6) compared to molassamide (5)
# [13] = 40 min pre-incubation, mean, n = 3, read-out: IC50 Chymotrypsin
# [14] = inhibitor concentration 0.0508053 nM, 40 min pre-incubation
# [15] = inhibitor concentration 0.152416 nM, 40 min pre-incubation
# [16] = inhibitor concentration 0.457247 nM, 40 min pre-incubation
# [17] = inhibitor concentration 1.37174 nM, 40 min pre-incubation
# [18] = inhibitor concentration 4.11523 nM, 40 min pre-incubation
# [19] = inhibitor concentration 12.3457 nM, 40 min pre-incubation
# [20] = inhibitor concentration 37.037 nM, 40 min pre-incubation
# [21] = inhibitor concentration 111.111 nM, 40 min pre-incubation
# [22] = inhibitor concentration 333.333 nM, 40 min pre-incubation
# [23] = inhibitor concentration 1000 nM, 40 min pre-incubation
# [24] = inhibitor concentration 3000 nM, 40 min pre-incubation
# [25] = Supplementary Table 5, compounds of this study, read-out: Chymotrypsin IC50
structure (smiles),measurement,setting,value
"C/C=C1\NC(=O)[C@@H](NC(=O)[C@@H](NC(=O)[C@H](C)NC(=O)CCC)[C@@H](C)O)[C@@H](C)OC(=O)[C@H](C(C)C)NC(=O)[C@H](Cc2ccc(O)c(Br)c2)N(C)C(=O)[C@H](Cc2ccccc2)N2C(=O)[C@H](CC[C@H]2O)NC1=O [Molassamide B, molassamide B]",IC50,Elastase,0.0117 µM
same,Mean (RFU/s),Elastase; [1],0.846 RFU/s
same,Mean (RFU/s),Elastase; [2],0.8437 RFU/s
same,Mean (RFU/s),Elastase; [3],0.8327 RFU/s
same,Mean (RFU/s),Elastase; [4],0.7837 RFU/s
same,Mean (RFU/s),Elastase; [5],0.677 RFU/s
same,Mean (RFU/s),Elastase; [6],0.418 RFU/s
same,Mean (RFU/s),Elastase; [7],0.1113 RFU/s
same,Mean (RFU/s),Elastase; [8],0.024 RFU/s
same,Mean (RFU/s),Elastase; [9],0 RFU/s
same,Mean (RFU/s),Elastase; [10],0 RFU/s
same,Mean (RFU/s),Elastase; [11],0 RFU/s
same,fold increase in potency towards elastase,Elastase; [12],three
same,IC50,Chymotrypsin; [13],0.0246 µM
same,Mean (RFU/s),Chymotrypsin; [14],5.208 RFU/s
same,Mean (RFU/s),Chymotrypsin; [15],5.061 RFU/s
same,Mean (RFU/s),Chymotrypsin; [16],5.116 RFU/s
same,Mean (RFU/s),Chymotrypsin; [17],5.104 RFU/s
same,Mean (RFU/s),Chymotrypsin; [18],4.681 RFU/s
same,Mean (RFU/s),Chymotrypsin; [19],3.888 RFU/s
same,Mean (RFU/s),Chymotrypsin; [20],1.754 RFU/s
same,Mean (RFU/s),Chymotrypsin; [21],0.844 RFU/s
same,Mean (RFU/s),Chymotrypsin; [22],0.3123 RFU/s
same,Mean (RFU/s),Chymotrypsin; [23],0.1157 RFU/s
same,Mean (RFU/s),Chymotrypsin; [24],0 RFU/s
same,IC50,Chymotrypsin; [25],0.0247 µM
same,fold increase in potency towards chymotrypsin,Chymotrypsin,thirtyfive
same,fold increase in potency towards chymotrypsin,Chymotrypsin; listed as 6,35 fold
same,IC50,Proteinase K,0.00542 µM
same,Mean (RFU/s),Proteinase K; [1],6.3 RFU/s
same,Mean (RFU/s),Proteinase K; [2],6.284 RFU/s
same,Mean (RFU/s),Proteinase K; [3],6.22 RFU/s
same,Mean (RFU/s),Proteinase K; [4],5.564 RFU/s
same,Mean (RFU/s),Proteinase K; [5],3.825 RFU/s
same,Mean (RFU/s),Proteinase K; [6],1.43 RFU/s
same,Mean (RFU/s),Proteinase K; [7],0.3433 RFU/s
same,Mean (RFU/s),Proteinase K; [8],0.1 RFU/s
same,Mean (RFU/s),Proteinase K; [9],0.03367 RFU/s
same,Mean (RFU/s),Proteinase K; [10],0 RFU/s
same,Mean (RFU/s),Proteinase K; [11],0 RFU/s
same,fold increase in potency towards proteinase K,Proteinase K; [12],four
"CC=C1NC(=O)[C@@H](NC(=O)[C@@H](NC(=O)[C@@H]2CCCN2C(=O)CCC)[C@@H](C)O)[C@@H](C)OC(=O)[C@H](C(C)C)NC(=O)[C@H](Cc2ccc(O)cc2)N(C)C(=O)[C@H](Cc2ccccc2)N2C(=O)[C@H](CC[C@H]2O)NC1=O [Rivulariapeptolide 988, rivulariapeptolide 988]",IC50,Elastase,0.0153 µM
same,Mean (RFU/s),Elastase; [1],0.804 RFU/s
same,Mean (RFU/s),Elastase; [2],0.8127 RFU/s
same,Mean (RFU/s),Elastase; [3],0.808 RFU/s
same,Mean (RFU/s),Elastase; [4],0.7693 RFU/s
same,Mean (RFU/s),Elastase; [5],0.661 RFU/s
same,Mean (RFU/s),Elastase; [6],0.463 RFU/s
same,Mean (RFU/s),Elastase; [7],0.2057 RFU/s
same,Mean (RFU/s),Elastase; [8],0.065 RFU/s
same,Mean (RFU/s),Elastase; [9],0.018 RFU/s
same,Mean (RFU/s),Elastase; [10],0 RFU/s
same,Mean (RFU/s),Elastase; [11],0 RFU/s
same,IC50,Chymotrypsin; [13],0.0955 µM
same,Mean (RFU/s),Chymotrypsin; [14],4.956 RFU/s
same,Mean (RFU/s),Chymotrypsin; [15],4.945 RFU/s
same,Mean (RFU/s),Chymotrypsin; [16],5.008 RFU/s
same,Mean (RFU/s),Chymotrypsin; [17],5.099 RFU/s
same,Mean (RFU/s),Chymotrypsin; [18],4.694 RFU/s
same,Mean (RFU/s),Chymotrypsin; [19],4.587 RFU/s
same,Mean (RFU/s),Chymotrypsin; [20],3.41 RFU/s
same,Mean (RFU/s),Chymotrypsin; [21],2.381 RFU/s
same,Mean (RFU/s),Chymotrypsin; [22],1.135 RFU/s
same,Mean (RFU/s),Chymotrypsin; [23],0.4203 RFU/s
same,Mean (RFU/s),Chymotrypsin; [24],0.1363 RFU/s
same,IC50,Chymotrypsin; [25],0.0955 µM
same,IC50,Proteinase K,0.0855 µM
same,Mean (RFU/s),Proteinase K; [1],6.083 RFU/s
same,Mean (RFU/s),Proteinase K; [2],6.104 RFU/s
same,Mean (RFU/s),Proteinase K; [3],6.172 RFU/s
same,Mean (RFU/s),Proteinase K; [4],5.959 RFU/s
same,Mean (RFU/s),Proteinase K; [5],5.86 RFU/s
same,Mean (RFU/s),Proteinase K; [6],5.64 RFU/s
same,Mean (RFU/s),Proteinase K; [7],4.799 RFU/s
same,Mean (RFU/s),Proteinase K; [8],2.395 RFU/s
same,Mean (RFU/s),Proteinase K; [9],0.4403 RFU/s
same,Mean (RFU/s),Proteinase K; [10],0.07367 RFU/s
same,Mean (RFU/s),Proteinase K; [11],0.022 RFU/s
